One test has as its target T1, IL-17A : IL-17RA binding (Homo sapiens, UniProt Q16552, K93Q).
T1 construct: Name: IL-17A-Flag
The experiment in a line: IL-17A(FLAG-tagged):IL-17RA(His-tagged) binding disruption Eu-HTRF assay, Protocol 1. The conditions noted are these: FLAG-IL-17A 2.5 nM at 2x final concentration; average if tested more than once. In short, it runs like this:
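IC50 came from a one-site competition fit of the acceptor/donor (665/620 nm) HTRF ratio. His-tagged IL-17RA, Eu-anti-FLAG and D2-anti-His were added after a 1 h rt compound preincubation with FLAG-tagged IL-17A dimer in PBS/0.01% Triton X-100, followed by 2 h at rt before reading.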

The test system of test [1] is IL-17A-induced G-CSF production in human normal keratinocyte (NHK). The experiment in a line: NHK assay: IL-17A-induced G-CSF production in normal human keratinocytes. It is filed as cell-based. Conditions: 24 h, IL-17A 5 ng/mL, average if tested more than once. In short, it runs like this:
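IC50 derives from G-CSF in supernatants, quantified by HTRF from a standard curve, with CellTiter-Glo viability compared to DMSO control. Before a 24 h, 37°C culture of normal human keratinocytes at 3000–4000 cells/well, compound dilutions were preincubated 1 h at rt with human IL-17A (5 ng/mL final), with 0.2% DMSO and 5% FBS.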

For 19 compounds, IC50 results are on record in patent US20240376085A1 (Janssen Pharmaceutica NV, priority 2021, published 2024).

What is called IC50 is the concentration needed to halve the response being measured. High values mean weaker potency, low ones greater potency.

The structures appear in SMILES notation.

T1 sequence (Q16552 with tags, fused parts or gaps K93Q): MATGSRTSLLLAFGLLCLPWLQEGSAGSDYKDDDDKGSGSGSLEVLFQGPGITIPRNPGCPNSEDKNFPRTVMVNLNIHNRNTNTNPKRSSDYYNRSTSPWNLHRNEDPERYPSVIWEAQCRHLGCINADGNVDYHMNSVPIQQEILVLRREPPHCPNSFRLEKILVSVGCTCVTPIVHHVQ

Turning to `C[C@@H](NC(=O)CCC(F)(F)F)c1ccc2nc([C@@H](NC(=O)c3ccnn3CCC(F)(F)F)C3CCC(F)(F)CC3)[nH]c2c1` [Example 121, N—((S)-(4,4-Difluorocyclohexyl)(6-((R)-1-(4,4,4-trifluorobutanamido)ethyl)-1H-benzo[d]imidazol-2-yl)methyl)-1-(3,3,3-trifluoropropyl)-1H-pyrazole-5-carboxamide], the IC50 is greater than 100 nM on IL-17A : IL-17RA binding and less than 50 nM in test [1] (Homo sapiens, Keratinocyte).

In the case of `CC(NC(=O)CCC(F)(F)F)c1ccc2nc([C@H](CC(C)(C)C(F)(F)F)NC(=O)c3ccnn3C(C)C)[nH]c2c1` (single isomer, unassigned) [Example 232, 1-Isopropyl-N—((S)-4,4,4-trifluoro-3,3-dimethyl-1-(6-((R*)-1-(4,4,4-trifluorobutanamido)ethyl)-1H-benzo[d]imidazol-2-yl)butyl)-1H-pyrazole-5-carboxamide], the IC50 at IL-17A : IL-17RA binding was greater than 100 nM; in test [1] it was 50 to 100 nM.

For `C[C@@H](NC(=O)CCC(F)(F)F)c1ccc2[nH]c([C@@H](NC(=O)C3(C)CC3)C3CCC(F)(F)CC3)nc2c1` [Example 95, N—((S)-(4,4-Difluorocyclohexyl)(5-((R)-1-(4,4,4-trifluorobutanamido)ethyl)-1H-benzo[d]imidazol-2-yl)methyl)-1-methylcyclopropane-1-carboxamide], the IC50 on IL-17A : IL-17RA binding was greater than 100 nM; in test [1] (Homo sapiens, Keratinocyte) it was greater than 100 nM.

Turning to `C[C@@H](NC(=O)CC(C(F)(F)F)C(F)(F)F)c1ccc2[nH]c([C@@H](NC(=O)c3ccnn3C)C3CCC(F)(F)CC3)nc2c1` [Example 116, N—((S)-(4,4-Difluorocyclohexyl)(5-((R)-1-(4,4,4-trifluoro-3-(trifluoromethyl)butanamido)ethyl)-1H-benzo[d]imidazol-2-yl)methyl)-1-methyl-1H-pyrazole-5-carboxamide], the IC50 is 50 to 100 nM on IL-17A : IL-17RA binding and less than 50 nM in test [1] (Homo sapiens, Keratinocyte).

In the case of `CC(C)c1ncsc1C(=O)N[C@H](c1nc2cc([C@@H](C)NC(=O)CCC(F)(F)F)ccc2[nH]1)C1CCC(F)(F)CC1` [Example 203, N—((S)-(4,4-Difluorocyclohexyl)(5-((R)-1-(4,4,4-trifluorobutanamido)ethyl)-1H-benzo[d]imidazol-2-yl)methyl)-4-isopropylthiazole-5-carboxamide], the IC50 at IL-17A : IL-17RA binding is greater than 100 nM; in test [1] (Homo sapiens, Keratinocyte) it was greater than 100 nM.

As for `CC(C)(C[C@H](NC(=O)c1nonc1C1CC1)c1nc2ccc([C@H](NC(=O)CCC(F)F)C3CC3)cc2[nH]1)C(F)(F)F` [Example 185, 4-Cyclopropyl-N—((S)-1-(6-((R)-cyclopropyl(4,4-difluorobutanamido)methyl)-1H-benzo[d]imidazol-2-yl)-4,4,4-trifluoro-3,3-dimethylbutyl)-1,2,5-oxadiazole-3-carboxamide], the IC50 at IL-17A : IL-17RA binding is less than 50 nM; in test [1] (Homo sapiens, Keratinocyte), greater than 100 nM.

Turning to `C[C@@H](NC(=O)CCC(F)(F)F)c1ccc2nc([C@@H](NC(=O)c3cnn(CCC(C)(C)C)n3)C3CCC(F)(F)CC3)[nH]c2c1` [Example 67, N—((S)-(4,4-Difluorocyclohexyl)(6-((R)-1-(4,4,4-trifluorobutanamido)ethyl)-1H-benzo[d]imidazol-2-yl)methyl)-2-(3,3-dimethylbutyl)-2H-1,2,3-triazole-4-carboxamide], the IC50 at IL-17A : IL-17RA binding is greater than 100 nM; in test [1] (Homo sapiens, Keratinocyte), greater than 100 nM.

On to `C[C@@H](NC(=O)CCC(F)(F)F)c1ccc2[nH]c([C@@H](NC(=O)c3cn(CC4CCC4)nc3C#N)C3CCC(F)(F)CC3)nc2c1` [Example 88, 3-Cyano-1-(cyclobutylmethyl)-N—((S)-(4,4-difluorocyclohexyl)(5-((R)-1-(4,4,4-trifluorobutanamido)ethyl)-1H-benzo[d]imidazol-2-yl)methyl)-1H-pyrazole-4-carboxamide], for which the IC50 on IL-17A : IL-17RA binding is greater than 100 nM; in test [1] (Homo sapiens, Keratinocyte), greater than 100 nM.

As to `CC(C)n1nccc1C(=O)N[C@H](c1nc2ccc([C@H](NC(=O)CC3CC(F)(F)C3)C3CC3)cc2[nH]1)C1CCC(F)(F)CO1` (single isomer, unassigned) [Example 261, N—((R)-(6-((R)-Cyclopropyl(2-(3,3-difluorocyclobutyl)acetamido)methyl)-1H-benzo[d]imidazol-2-yl)((S*)-5,5-difluorotetrahydro-2H-pyran-2-yl)methyl)-1-isopropyl-1H-pyrazole-5-carboxamide], the IC50 was greater than 100 nM on IL-17A : IL-17RA binding and 50 to 100 nM in test [1] (Homo sapiens, Keratinocyte).

Regarding `CC(C)n1nccc1C(=O)N[C@H](c1nc2ccc([C@H](NC(=O)CC3CC(F)(F)C3)C3CC3)cc2[nH]1)[C@@H]1C[C@@H]2[C@H](C1)C2(F)F` [Example 238, N—((S)-(6-((R)-Cyclopropyl(2-(3,3-difluorocyclobutyl)acetamido)methyl)-1H-benzo[d]imidazol-2-yl)((1R,3s,5S)-6,6-difluorobicyclo[3.1.0]hexan-3-yl)methyl)-1-isopropyl-1H-pyrazole-5-carboxamide], the IC50 is less than 50 nM at IL-17A : IL-17RA binding and less than 50 nM in test [1] (Homo sapiens, Keratinocyte).

Regarding `CC(OCC(NC(=O)c1nonc1C1CC1)c1nc2ccc([C@H](NC(=O)CC3CC(F)(F)C3)C3CC3)cc2[nH]1)C(F)(F)F` (single isomer, unassigned) [Example 153, 4-Cyclopropyl-N-((1R*)-1-(6-((R)-cyclopropyl(2-(3,3-difluorocyclobutyl)acetamido)methyl)-1H-benzo[d]imidazol-2-yl)-2-((1,1,1-trifluoropropan-2-yl)oxy)ethyl)-1,2,5-oxadiazole-3-carboxamide], the IC50 was less than 50 nM at IL-17A : IL-17RA binding and greater than 100 nM in test [1] (Homo sapiens, Keratinocyte).

In the case of `C[C@@H](NC(=O)CCC(F)(F)F)c1ccc2[nH]c([C@@H](NC(=O)c3cnn(CC4CC(F)(F)C4(F)F)n3)C3CCC(F)(F)CC3)nc2c1` (stereo partly drawn) [Example 83, N—((S)-(4,4-Difluorocyclohexyl)(5-((R)-1-(4,4,4-trifluorobutanamido)ethyl)-1H-benzo[d]imidazol-2-yl)methyl)-2-((2,2,3,3-tetrafluorocyclobutyl)methyl)-2H-1,2,3-triazole-4-carboxamide], the IC50 is greater than 100 nM on IL-17A : IL-17RA binding and greater than 100 nM in test [1] (Homo sapiens, Keratinocyte).

For `CCc1nonc1C(=O)N[C@@H](CC(C)(C)C(F)(F)F)c1nc2cc([C@@H](NC(=O)CCC(F)(F)F)C3CC3)ccc2[nH]1` (relative stereo) [Example 189, N—((S*)-1-(5-((S*)-Cyclopropyl(4,4,4-trifluorobutanamido)methyl)-1H-benzo[d]imidazol-2-yl)-4,4,4-trifluoro-3,3-dimethylbutyl)-4-ethyl-1,2,5-oxadiazole-3-carboxamide], the IC50 on IL-17A : IL-17RA binding was greater than 100 nM; in test [1] (Homo sapiens, Keratinocyte), greater than 100 nM.

Consider `Cc1nonc1C(=O)N[C@H](c1nc2ccc([C@H](NC(=O)CC3CC(F)(F)C3)C3CC3)cc2[nH]1)[C@@H]1C[C@@H]2[C@H](C1)C2(F)F` [Example 237, N—((S)-(6-((R)-Cyclopropyl(2-(3,3-difluorocyclobutyl)acetamido)methyl)-1H-benzo[d]imidazol-2-yl)((1R,3s,5S)-6,6-difluorobicyclo[3.1.0]hexan-3-yl)methyl)-4-methyl-1,2,5-oxadiazole-3-carboxamide], for which the concentration for half-maximal inhibition (IC50) is less than 50 nM at IL-17A : IL-17RA binding and 50 to 100 nM in test [1] (Homo sapiens, Keratinocyte).

Take `C[C@@H](NC(=O)CCC(F)(F)F)c1ccc2[nH]c([C@@H](NC(=O)CC3CC3(F)F)C3CCC(F)(F)CC3)nc2c1` (single isomer, unassigned) [Example 107, N—((R)-1-(2-((S)-(4,4-Difluorocyclohexyl)(2-((R*)-2,2-difluorocyclopropyl)acetamido)methyl)-1H-benzo[d]imidazol-5-yl)ethyl)-4,4,4-trifluorobutanamide]: the IC50 at IL-17A : IL-17RA binding is greater than 100 nM; in test [1] (Homo sapiens, Keratinocyte) it was greater than 100 nM.

For the compound `Cc1nonc1C(=O)N[C@@H](COC(C)(C)C(F)(F)F)c1nc2ccc([C@H](NC(=O)CC3CC(F)(F)C3)C3CC3)cc2[nH]1` (relative stereo) [Example 161, N—((R*)-1-(6-((R)-Cyclopropyl(2-(3,3-difluorocyclobutyl)acetamido)methyl)-1H-benzo[d]imidazol-2-yl)-2-((1,1,1-trifluoro-2-methylpropan-2-yl)oxy)ethyl)-4-methyl-1,2,5-oxadiazole-3-carboxamide], the IC50 at IL-17A : IL-17RA binding was less than 50 nM; in test [1] (Homo sapiens, Keratinocyte), 50 to 100 nM.

Take `O=C(CC1CC(F)(F)C1)N[C@@H](c1ccc2nc([C@@H](NC(=O)c3nonc3C3CC3)[C@H]3CCCC(F)(F)C3)[nH]c2c1)C1CC1` [Example 170, 4-Cyclopropyl-N—((S)-(6-((R)-cyclopropyl(2-(3,3-difluorocyclobutyl)acetamido)methyl)-1H-benzo[d]imidazol-2-yl)((S)-3,3-difluorocyclohexyl)methyl)-1,2,5-oxadiazole-3-carboxamide]: the IC50 at IL-17A : IL-17RA binding was less than 50 nM; in test [1] (Homo sapiens, Keratinocyte), less than 50 nM.

With `Cc1nonc1C(=O)N[C@@H](CC(C)(C)C(F)(F)F)c1nc2ccc([C@H](NC(=O)CC(C)C(F)(F)F)C3CC3)cc2[nH]1` (single isomer, unassigned) [Example 179, N—((S)-1-(6-((R)-Cyclopropyl((R*)-4,4,4-trifluoro-3-methylbutanamido)methyl)-1H-benzo[d]imidazol-2-yl)-4,4,4-trifluoro-3,3-dimethylbutyl)-4-methyl-1,2,5-oxadiazole-3-carboxamide], the IC50 on IL-17A : IL-17RA binding is less than 50 nM; in test [1] (Homo sapiens, Keratinocyte), greater than 100 nM.

Consider `CC(C)c1ccsc1C(=O)N[C@H](c1nc2cc([C@@H](C)NC(=O)CCC(F)(F)F)ccc2[nH]1)C1CCC(F)(F)CC1` [Example 205, N—((S)-(4,4-Difluorocyclohexyl)(5-((R)-1-(4,4,4-trifluorobutanamido)ethyl)-1H-benzo[d]imidazol-2-yl)methyl)-3-isopropylthiophene-2-carboxamide], for which the IC50 on IL-17A : IL-17RA binding was less than 50 nM; in test [1] (Homo sapiens, Keratinocyte), 50 to 100 nM.
